Results published in patent publication US20060292254A1, “Orally and nasally administered appetite suppressant” (priority 2005, published 2006).

System: food intake in food deprived rats
Experiment: Effect of intranasal administration of capsaicin on food intake in food deprived rats
Type: in vivo, Male Sprague-Dawley rats
Conditions: intra-nasal liquid solution, 0.02-2 mg/kg of body weight, food introduced one hour after administration, consumption determined after 4, 12 and 24 hours, mush diet
Description: Male Sprague-Dawley rats, 150-175 g at the start of the experiments (Charles River Laboratories, Wilmington, Mass.) were housed individually in suspended wire mesh cages. Rats had ad libitum access to tap water and food (Rodent Laboratory Chow No. 5001-pellet form, Purina) on non-testing days. A mush diet, used for experiments on food-deprived animals, and composed of equal parts by weight of ground rodent chow (Purina, #5001-meal form) and a 4% nutrient agar solution (Teklad Diets) was presented to the animals in glass jars. This agar-based chow diet allows for a more accurate measurement of food intake, and has been shown previously to be sufficient for maintaining normal rat growth.
Capsaicin was prepared as a liquid solution and administered intra-nasally, The drug dosage ranged from 0.02-2 mg/kg of body weight. Control animals were administered placebo formulation without capsaicin. One hour after administration, pre-weighed food jars were introduced into the cage and a sheet of clean white paper placed under each cage to catch any spillage. The amount of food consumed after 4, 12 and 24 hours was determined to the nearest 0.01 g.

Question: For `COc1cc(CNC(=O)CCCC/C=C/C(C)C)ccc1O` [Capsaicin], which “amount of food consumed versus placebo” value is on record?
Answer: The value was “significantly less food”.
